Measurements from US12479843B2, “Spiro ring-containing quinazoline compounds” (WIGEN BIOMEDICINE TECHNOLOGY (SHANGHAI) CO., LTD., priority 2019, dated 2025).

Test system: pERK level in H358 cells
Test: pERK and ERK protein content assay in H358 cells (ELISA)
Format: cell-based
Conditions: Homo sapiens, NCI-H358, compound 1 μM, 24 h, pERK/ERK ratio compared with DMSO group, read-out: Inhibition rate (%) of pERK level
Method in brief: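 H358 cells grown one day, then treated 24 h with compound at 1 μM. pERK and ERK in lysates measured by ELISA; pERK/ERK ratio expressed as percent inhibition versus DMSO.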

| SMILES | inhibition at 1 µM [%] |
| --- | --- |
| C=CC(=O)N1CCC2(CC1)CN(c1nc(OC3CCN(CCOC)CC3)nc3c(OCC(F)(F)F)c(-c4c(C)ccc5[nH]ncc45)c(C4CC4)cc13)C2 [Compound 27] | 50 to 90 |
| C=CC(=O)N1CC2(CCN(c3nc(OC4CC5CC4CN5CCOC)nc4c(OCC(F)(F)F)c(-c5c(C)ccc6[nH]ncc56)c(C5CC5)cc34)CC2)C1 (stereo not shown) [Compound 121] | 50 to 90 |
| C=CC(=O)N1CC2(CCN(c3nc(O[C@@H]4C[C@@H]5C[C@H]4CS5(=O)=O)nc4c(OCC(F)(F)F)c(-c5c(C)ccc6[nH]ncc56)c(C5CC5)cc34)CC2)C1 [Compound 315] | > 90 |
| C=C(C(=O)N1CC2(CCN(c3nc(OC4CCN(CCOC)CC4)nc4c(OCC(F)(F)F)c(-c5c(C)ccc6[nH]ncc56)c(C5CC5)cc34)CC2)C1)n1ccnn1 [Compound 25] | > 90 |
| C=CC(=O)N1CC2(CCN(c3nc(N4CC5(C4)CS(=O)(=O)C5)nc4c(OCC(F)(F)F)c(-c5c(C)ccc6[nH]ncc56)c(C5CC5)cc34)CC2)C1 [Compound 306] | > 90 |
| C=CC(=O)N1CC2(CCN(c3nc(N4CCC5(CCN(CCOC)CC5)CC4)nc4c(OCC(F)(F)F)c(-c5c(C)ccc6[nH]ncc56)c(C5CC5)cc34)CC2)C1 [Compound 107] | 50 to 90 |
| C=CC(=O)N1CC2(CCN(c3nc(N4CC5(CCOCC5)C4)nc4c(OCC(F)(F)F)c(-c5c(C)ccc6[nH]ncc56)c(C5CC5)cc34)CC2)C1 [Compound 156] | > 90 |
| C=C(F)C(=O)N1CC2(CCN(c3nc(OC4CCN(CCOC)CC4)nc4c(OCC(F)(F)F)c(-c5ccccc5F)c(C5CC5)cc34)CC2)C1 [Compound 52] | > 90 |
| C=CC(=O)N1CC2(CCN(c3nc(N4CC(N5CCC(F)CC5)C4)nc4c(OCC(F)(F)F)c(-c5c(C)ccc6[nH]ncc56)c(C5CC5)cc34)CC2)C1 [Compound 178] | > 90 |
| C=CC(=O)N1CC2(CCN(c3nc(N4CC5(CCN(CCOC)CC5)C4)nc4c(OCC(F)(F)F)c(-c5c(C)ccc6[nH]ncc56)c(C=C)cc34)CC2)C1 [Compound 338] | > 90 |
| C=CC(=O)N1CC2(CCN(c3nc(N4CC[C@@H](N5CCC(F)CC5)C4)nc4c(OCC(F)(F)F)c(-c5c(C)ccc6[nH]ncc56)c(C5CC5)cc34)CC2)C1 [Compound 212] | > 90 |
| C=CC(=O)N1CC2(CCN(c3nc(N4CC(N5C6CCC5CC6)C4)nc4c(OCC(F)(F)F)c(-c5c(C)c(F)cc6[nH]ncc56)c(C5CC5)cc34)CC2)C1 [Compound 329] | > 90 |
| C=C(F)C(=O)N1CC2(CCN(c3nc(OC4CCN(CCOC)CC4)nc4c(OCC(F)(F)F)c(-c5c(C)ccc6nc[nH]c(=O)c56)c(C5CC5)cc34)CC2)C1 [Compound 44] | > 90 |
| C=CC(=O)N1CC2(CCN(c3nc(N4CC5(CCN(C)CC5)C4)nc4c(OCC(F)(F)F)c(-c5c(C)ccc6[nH]ncc56)c(C5CC5)cc34)CC2)C1 [Compound 77] | 50 to 90 |
| C=CC(=O)N1CC2(CCN(c3nc(OC4CCN(CCOC)CC4)nc4c(OCC(F)(F)F)c(-c5cc(O)ccc5F)c(C5CC5)cc34)CC2)C1 [Compound 57] | > 90 |
| C=CC(=O)N1CC2(CCN(c3nc(N4CC[C@H](N5CCC5)C4)nc4c(OCC(F)(F)F)c(-c5c(C)ccc6[nH]ncc56)c(C5CC5)cc34)CC2)C1 [Compound 181] | > 90 |
| C=CC(=O)N1CC2(CCN(c3nc(OC[C@@H]4COCCN4CCOC)nc4c(OCC(F)(F)F)c(-c5c(C)ccc6[nH]ncc56)c(C5CC5)cc34)CC2)C1 [Compound 117] | > 90 |

Test system: H358 cells
Test: Antiproliferative activity against H358 cells (Cell Titer Glow, ultra-low attachment plate)
Format: cell-based
Conditions: Homo sapiens, NCI-H358, 72 h, 96-well ultra-low attachment plate, three days after addition of compound, Cell Titer Glow
Method: 2500 H358 cells were seeded in a 96-well ultra-low attachment plate (corning, 7007). After one day of growth, a serially diluted compound (a maximum concentration of 5 μM, 5-fold dilution, a total of five doses) was added. Three days after the addition of the compound, Cell Titer Glow (Promega, G9681) was added to evaluate pellet growth, and the IC50 value was calculated.

| SMILES | IC50 [nM] |
| --- | --- |
| C=CC(=O)N1CCC2(CC1)CN(c1nc(OC3CCN(CCOC)CC3)nc3c(OCC(F)(F)F)c(-c4c(C)ccc5[nH]ncc45)c(C4CC4)cc13)C2 [Compound 27] | 300 to 1000 |
| C=CC(=O)N1CC2(CCN(c3nc(N4CCC5(CCN(CCOC)CC5)CC4)nc4c(OCC(F)(F)F)c(-c5c(C)ccc6[nH]ncc56)c(C5CC5)cc34)CC2)C1 [Compound 107] | 300 to 1000 |
| C=CC(=O)N1CC2(CCN(c3nc(N4CC5(CCN(CCOC)CC5)C4)nc4c(OCC(F)(F)F)c(-c5c(C)ccc6[nH]ncc56)c(C=C)cc34)CC2)C1 [Compound 338] | < 300 |
| C=CC(=O)N1CC2(CCN(c3nc(N4CC[C@@H](N5CCC(F)CC5)C4)nc4c(OCC(F)(F)F)c(-c5c(C)ccc6[nH]ncc56)c(C5CC5)cc34)CC2)C1 [Compound 212] | < 300 |
| C=CC(=O)N1CC2(CCN(c3nc(N4CC(N5C6CCC5CC6)C4)nc4c(OCC(F)(F)F)c(-c5c(C)c(F)cc6[nH]ncc56)c(C5CC5)cc34)CC2)C1 [Compound 329] | < 300 |
| C=C(F)C(=O)N1CC2(CCN(c3nc(OC4CCN(CCOC)CC4)nc4c(OCC(F)(F)F)c(-c5c(C)ccc6nc[nH]c(=O)c56)c(C5CC5)cc34)CC2)C1 [Compound 44] | < 300 |
| C=CC(=O)N1CC2(CCN(c3nc(N4CC5(CCN(C)CC5)C4)nc4c(OCC(F)(F)F)c(-c5c(C)ccc6[nH]ncc56)c(C5CC5)cc34)CC2)C1 [Compound 77] | 300 to 1000 |
| C=CC(=O)N1CC2(CCN(c3nc(OC4CCN(CCOC)CC4)nc4c(OCC(F)(F)F)c(-c5cc(O)ccc5F)c(C5CC5)cc34)CC2)C1 [Compound 57] | < 300 |
| C=CC(=O)N1CC2(CCN(c3nc(N4CC[C@H](N5CCC5)C4)nc4c(OCC(F)(F)F)c(-c5c(C)ccc6[nH]ncc56)c(C5CC5)cc34)CC2)C1 [Compound 181] | < 300 |
| C=CC(=O)N1CC2(CCN(c3nc(OC[C@@H]4COCCN4CCOC)nc4c(OCC(F)(F)F)c(-c5c(C)ccc6[nH]ncc56)c(C5CC5)cc34)CC2)C1 [Compound 117] | < 300 |

The remaining lines, values ahead:

| IC50 [nM] | SMILES |
| --- | --- |
| < 300 | C=CC(=O)N1CC2(CCN(c3nc(OC4CC5CC4CN5CCOC)nc4c(OCC(F)(F)F)c(-c5c(C)ccc6[nH]ncc56)c(C5CC5)cc34)CC2)C1 (stereo not shown) [Compound 121] |
| < 300 | C=CC(=O)N1CC2(CCN(c3nc(O[C@@H]4C[C@@H]5C[C@H]4CS5(=O)=O)nc4c(OCC(F)(F)F)c(-c5c(C)ccc6[nH]ncc56)c(C5CC5)cc34)CC2)C1 [Compound 315] |
| < 300 | C=C(C(=O)N1CC2(CCN(c3nc(OC4CCN(CCOC)CC4)nc4c(OCC(F)(F)F)c(-c5c(C)ccc6[nH]ncc56)c(C5CC5)cc34)CC2)C1)n1ccnn1 [Compound 25] |
| < 300 | C=CC(=O)N1CC2(CCN(c3nc(N4CC5(C4)CS(=O)(=O)C5)nc4c(OCC(F)(F)F)c(-c5c(C)ccc6[nH]ncc56)c(C5CC5)cc34)CC2)C1 [Compound 306] |
| < 300 | C=CC(=O)N1CC2(CCN(c3nc(N4CC5(CCOCC5)C4)nc4c(OCC(F)(F)F)c(-c5c(C)ccc6[nH]ncc56)c(C5CC5)cc34)CC2)C1 [Compound 156] |
| < 300 | C=C(F)C(=O)N1CC2(CCN(c3nc(OC4CCN(CCOC)CC4)nc4c(OCC(F)(F)F)c(-c5ccccc5F)c(C5CC5)cc34)CC2)C1 [Compound 52] |
| < 300 | C=CC(=O)N1CC2(CCN(c3nc(N4CC(N5CCC(F)CC5)C4)nc4c(OCC(F)(F)F)c(-c5c(C)ccc6[nH]ncc56)c(C5CC5)cc34)CC2)C1 [Compound 178] |
